The values that follow come from patent US20260062387A1, “SALT-INDUCIBLE KINASE INHIBITOR COMPOUND AND PHARMACEUTICAL COMPOSITION INCLUDING THE SAME” (MITSUBISHI TANABE PHARMA CORPORATION, priority 2023, published 2026).

Holding throughout (format): biochemical
The target in one assay is GST-tagged SIK3 (Homo sapiens (Human), UniProt Q9Y2K2). The assay is described as follows: SIK3 inhibition test (ADP-Glo Max Assay). The following applies: enzyme 100 nM, AMARA Peptide 100 μM, ATP 1 mM, 2 hours room temperature. The essentials: (§1)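 GST-tagged human SIK1, SIK2 and SIK3 at 20 nM, 3 nM and 100 nM final in Tris pH 7.5 buffer, with AMARA peptide (200 μM for SIK1/SIK2, 100 μM for SIK3), 1 mM ATP and 5 mM MgCl2. Reaction ran 2 h at room temperature. ADP read by ADP-Glo Max luminescence, and IC50 fitted from 16 concentrations.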
Sequence of GST-tagged SIK3 (Q9Y2K2 whole entry): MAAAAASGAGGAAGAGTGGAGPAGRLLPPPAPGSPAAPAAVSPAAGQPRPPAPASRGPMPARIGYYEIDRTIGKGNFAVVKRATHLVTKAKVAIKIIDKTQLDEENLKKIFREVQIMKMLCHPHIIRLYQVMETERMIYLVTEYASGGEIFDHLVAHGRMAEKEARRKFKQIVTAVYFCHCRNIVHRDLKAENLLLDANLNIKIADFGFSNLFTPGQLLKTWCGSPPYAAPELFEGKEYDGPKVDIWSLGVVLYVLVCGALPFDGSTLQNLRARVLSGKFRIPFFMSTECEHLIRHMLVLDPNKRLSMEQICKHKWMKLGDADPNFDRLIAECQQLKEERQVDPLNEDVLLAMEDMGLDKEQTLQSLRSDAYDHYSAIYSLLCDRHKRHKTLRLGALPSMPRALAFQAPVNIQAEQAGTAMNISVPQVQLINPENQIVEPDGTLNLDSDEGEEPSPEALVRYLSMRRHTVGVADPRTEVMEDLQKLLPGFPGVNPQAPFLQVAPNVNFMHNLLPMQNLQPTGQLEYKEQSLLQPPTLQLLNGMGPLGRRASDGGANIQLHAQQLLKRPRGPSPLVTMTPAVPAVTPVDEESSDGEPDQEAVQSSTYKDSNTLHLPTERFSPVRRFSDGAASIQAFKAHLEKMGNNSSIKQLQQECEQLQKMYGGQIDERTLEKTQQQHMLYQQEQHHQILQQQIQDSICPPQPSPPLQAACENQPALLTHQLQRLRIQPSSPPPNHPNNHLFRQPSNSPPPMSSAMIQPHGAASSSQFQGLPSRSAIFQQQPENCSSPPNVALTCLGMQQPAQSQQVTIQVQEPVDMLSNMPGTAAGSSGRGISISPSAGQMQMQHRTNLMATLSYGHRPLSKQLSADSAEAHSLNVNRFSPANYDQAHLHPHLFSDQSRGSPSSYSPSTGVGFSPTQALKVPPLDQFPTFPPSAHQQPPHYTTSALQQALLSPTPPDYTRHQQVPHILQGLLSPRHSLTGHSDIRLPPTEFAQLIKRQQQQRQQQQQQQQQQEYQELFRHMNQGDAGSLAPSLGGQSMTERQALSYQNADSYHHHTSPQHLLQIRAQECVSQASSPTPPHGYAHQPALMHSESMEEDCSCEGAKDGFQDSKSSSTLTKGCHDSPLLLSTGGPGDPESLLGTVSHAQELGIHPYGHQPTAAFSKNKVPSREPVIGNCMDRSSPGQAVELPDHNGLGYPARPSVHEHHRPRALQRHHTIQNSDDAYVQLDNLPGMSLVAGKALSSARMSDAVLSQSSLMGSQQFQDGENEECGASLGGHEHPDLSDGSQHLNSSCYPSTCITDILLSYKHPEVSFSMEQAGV
For orientation: ADP-Glo turns the ADP formed in a reaction into a luminescent signal.

Another assay deals with GST-tagged SIK2 (Homo sapiens (Human), UniProt Q9H0K1). The assay is described as follows: SIK2 inhibition test (ADP-Glo Max Assay). The following applies: enzyme 3 nM, AMARA Peptide 200 μM, ATP 1 mM, 2 hours room temperature. The essentials: as §1
Sequence of GST-tagged SIK2 (Q9H0K1 whole entry): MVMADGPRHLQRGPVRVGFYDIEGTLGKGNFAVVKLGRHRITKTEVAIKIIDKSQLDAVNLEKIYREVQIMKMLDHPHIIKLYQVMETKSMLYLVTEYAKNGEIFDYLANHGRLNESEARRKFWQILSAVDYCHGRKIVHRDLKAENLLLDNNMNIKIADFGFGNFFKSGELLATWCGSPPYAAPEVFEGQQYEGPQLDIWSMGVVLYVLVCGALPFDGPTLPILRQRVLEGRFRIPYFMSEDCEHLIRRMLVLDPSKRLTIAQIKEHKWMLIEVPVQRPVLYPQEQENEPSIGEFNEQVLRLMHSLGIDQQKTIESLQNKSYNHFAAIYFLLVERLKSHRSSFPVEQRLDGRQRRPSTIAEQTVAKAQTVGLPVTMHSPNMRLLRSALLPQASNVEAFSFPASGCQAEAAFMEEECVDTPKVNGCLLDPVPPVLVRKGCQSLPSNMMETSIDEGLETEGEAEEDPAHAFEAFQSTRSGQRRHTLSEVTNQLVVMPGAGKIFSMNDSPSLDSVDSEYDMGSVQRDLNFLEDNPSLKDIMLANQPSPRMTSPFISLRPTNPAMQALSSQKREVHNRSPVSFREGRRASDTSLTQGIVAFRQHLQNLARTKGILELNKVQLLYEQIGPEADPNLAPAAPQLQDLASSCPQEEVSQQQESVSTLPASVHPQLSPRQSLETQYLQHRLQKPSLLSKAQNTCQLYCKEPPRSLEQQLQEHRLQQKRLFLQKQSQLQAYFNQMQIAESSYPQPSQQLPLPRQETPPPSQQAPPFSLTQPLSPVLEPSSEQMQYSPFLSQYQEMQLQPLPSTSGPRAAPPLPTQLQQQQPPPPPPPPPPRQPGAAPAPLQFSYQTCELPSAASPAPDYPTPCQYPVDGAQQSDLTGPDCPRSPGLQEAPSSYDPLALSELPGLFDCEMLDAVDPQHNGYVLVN
The target of a further assay is GST-tagged SIK1 (Homo sapiens (Human), UniProt P57059). The assay is described as follows: SIK1 inhibition test (ADP-Glo Max Assay). The following applies: enzyme 20 nM, AMARA Peptide 200 μM, ATP 1 mM, 2 hours room temperature. The essentials:
as §1

Sequence of GST-tagged SIK1 (P57059 whole entry): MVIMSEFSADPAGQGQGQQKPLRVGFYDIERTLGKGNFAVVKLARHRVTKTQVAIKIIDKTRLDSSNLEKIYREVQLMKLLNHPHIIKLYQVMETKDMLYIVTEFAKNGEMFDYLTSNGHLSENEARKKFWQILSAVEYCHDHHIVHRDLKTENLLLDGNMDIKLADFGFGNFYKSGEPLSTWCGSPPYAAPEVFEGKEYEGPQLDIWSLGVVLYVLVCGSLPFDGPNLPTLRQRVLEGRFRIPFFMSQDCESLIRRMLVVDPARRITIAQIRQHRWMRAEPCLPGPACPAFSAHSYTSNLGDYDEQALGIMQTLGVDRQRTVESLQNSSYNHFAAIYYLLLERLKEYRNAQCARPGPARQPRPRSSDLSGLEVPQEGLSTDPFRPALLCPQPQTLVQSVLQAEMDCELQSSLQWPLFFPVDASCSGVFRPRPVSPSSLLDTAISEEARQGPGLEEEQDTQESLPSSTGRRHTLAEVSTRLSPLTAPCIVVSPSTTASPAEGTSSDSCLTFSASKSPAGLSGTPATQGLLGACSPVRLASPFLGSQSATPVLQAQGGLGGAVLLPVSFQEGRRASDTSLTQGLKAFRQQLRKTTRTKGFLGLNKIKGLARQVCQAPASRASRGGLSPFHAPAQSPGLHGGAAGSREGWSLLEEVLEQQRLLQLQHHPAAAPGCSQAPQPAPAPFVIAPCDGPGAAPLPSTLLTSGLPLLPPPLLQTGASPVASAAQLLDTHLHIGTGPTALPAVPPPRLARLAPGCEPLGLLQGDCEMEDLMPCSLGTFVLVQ

Take `COc1cc(-c2c3c(OCC(F)(F)F)cc(-c4cnn(C)c4)cc3nn2C)cc(OC(F)F)c1C(=O)N1CC(O)(C(F)(F)F)C1` [Example 30, [2-(difluoromethoxy)-6-methoxy-4-[2-methyl-6-(1-methylpyrazol-4-yl)-4-(2,2,2-trifluoroethoxy)indazol-3-yl]phenyl]-[3-hydroxy-3-(trifluoromethyl)azetidin-1-yl]methanone]: the IC50 (in general, the midpoint of a concentration-inhibition curve) on GST-tagged SIK3 was 3.6 nM; at GST-tagged SIK2, 6.6 nM; against GST-tagged SIK1 it was 5.1 nM.
With `COc1cc(-c2c3c(C#N)cc(-c4cnn(CC(F)F)c4)cc3nn2C)cc(OC(F)F)c1C(=O)N[C@@H]1C[C@@H]1F` [Example 31, 4-[4-cyano-6-[1-(2,2-difluoroethyl)pyrazol-4-yl]-2-methylindazol-3-yl]-2-(difluoromethoxy)-N-[(1R, 2S)-2-fluorocyclopropyl]-6-methoxybenzamide], the values for the IC50 at GST-tagged SIK3, against GST-tagged SIK2 and on GST-tagged SIK1 were 7.8 nM, 3.3 nM and 3.7 nM, respectively.
The like results for `COc1cc(-c2c3c(C#N)cc(-c4cnn(CC5CC5)c4)cc3nn2C)cc(OC(F)F)c1C(=O)N[C@@H]1C[C@@H]1F` [Example 32, 4-[4-cyano-6-[1-(cyclopropylmethyl)pyrazol-4-yl]-2-methylindazol-3-yl]-2-(difluoromethoxy)-N-[(1R, 2S)-2-fluorocyclopropyl]-6-methoxybenzamide] were, in that order, 8.9 nM, 4.5 nM and 5 nM.
The corresponding values for `COc1cc(-c2c3c(C#N)cc(-c4cnn(C(C)C)c4)cc3nn2C)cc(OC(F)F)c1C(=O)N[C@@H]1C[C@@H]1F` [Example 33, 4-[4-cyano-2-methyl-6-(1-propan-2-ylpyrazol-4-yl)indazol-3-yl]-2-(difluoromethoxy)-N-[(1R,2S)-2-fluorocyclopropyl]-6-methoxybenzamide] are 8.5 nM, 2.6 nM and 4.6 nM.
The corresponding values for `COc1cc(-c2c3c(OCc4cccnc4)cc(-c4cnn(C)c4)cc3nn2C)cc(OC(F)F)c1C(=O)N1CC(O)(C(F)(F)F)C1` [Example 34, [2-(difluoromethoxy)-6-methoxy-4-[2-methyl-6-(1-methylpyrazol-4-yl)-4-(pyridin-3-ylmethoxy)indazol-3-yl]phenyl]-[3-hydroxy-3-(trifluoromethyl)azetidin-1-yl]methanone] are 2.9 nM, 1 nM and 0.4 nM.
For `COc1cc(-c2c3c(OCc4ccncc4)cc(-c4cnn(C)c4)cc3nn2C)cc(OC(F)F)c1C(=O)N1CC(O)(C(F)(F)F)C1` [Example 35, [2-(difluoromethoxy)-6-methoxy-4-[2-methyl-6-(1-methylpyrazol-4-yl)-4-(pyridin-4-ylmethoxy)indazol-3-yl]phenyl]-[3-hydroxy-3-(trifluoromethyl)azetidin-1-yl]methanone], the IC50 came out at 12.9 nM on GST-tagged SIK3, 3 nM against GST-tagged SIK2 and 1.9 nM against GST-tagged SIK1.
As for `COc1cc(-c2c3c(C#N)cc(-c4cnn(C)c4)cc3nn2C)cc(OC(F)F)c1C(=O)N1CC(N)(C(F)(F)F)C1` [Example 36, 3-[4-[3-amino-3-(trifluoromethyl)azetidin-1-carbonyl]-3-(difluoromethoxy)-5-methoxyphenyl]-2-methyl-6-(1-methylpyrazol-4-yl)indazole-4-carbonitrile], the IC50 was 10.2 nM at GST-tagged SIK3, 15.4 nM on GST-tagged SIK2 and 12.5 nM on GST-tagged SIK1.
The corresponding values for `COc1cc(-c2c3c(OC)cc(-c4cnn(C)c4)cc3nn2C)cc(OC(F)F)c1C(=O)N1CC(O)(C(F)F)C1` [Example 37, [2-(difluoromethoxy)-6-methoxy-4-[4-methoxy-2-methyl-6-(1-methylpyrazol-4-yl)indazol-3-yl]phenyl]-[3-(difluoromethyl)-3-hydroxyazetidin-1-yl]methanone] are 12.9 nM, 8.3 nM and 7.9 nM.
As to `COc1cc(-c2c3c(C(F)F)cc(-c4cnn(C)c4)cc3nn2C)cc(OC(F)F)c1C(=O)N1CC(O)(C(F)F)C1` [Example 38, [2-(difluoromethoxy)-4-[4-(difluoromethyl)-2-methyl-6-(1-methylpyrazol-4-yl)indazol-3-yl]-6-methoxyphenyl]-[3-(difluoromethyl)-3-hydroxyazetidin-1-yl]methanone], the half-inhibitory concentration (IC50) stood at 10.1 nM against GST-tagged SIK3, 13.8 nM at GST-tagged SIK2 and 16.8 nM against GST-tagged SIK1.
Turning to `COc1cc(-c2c3c(C#N)cc(-c4cnn(C)c4)cc3nn2C)cc(OC(F)F)c1C(=O)N1CC(C#N)(C(F)F)C1` [Example 39, 3-[4-[3-cyano-3-(difluoromethyl)azetidin-1-carbonyl]-3-(difluoromethoxy)-5-methoxyphenyl]-2-methyl-6-(1-methylpyrazol-4-yl)indazole-4-carbonitrile], the IC50 against GST-tagged SIK3 was determined as 9.4 nM; on GST-tagged SIK2, 18.2 nM; on GST-tagged SIK1 it was 16.2 nM.
On to `COc1cc(-c2c3c(C#N)cc(/C=C/c4cnn(C)c4)cc3nn2C)cc(OC(F)F)c1C(=O)N[C@@H]1C[C@@H]1F` [Example 40, 4-[4-cyano-2-methyl-6-[(E)-2-(1-methylpyrazol-4-yl)ethenyl]indazol-3-yl]-2-(difluoromethoxy)-N-[(1R,2S)-2-fluorocyclopropyl]-6-methoxybenzamide], for which the IC50 on GST-tagged SIK3 came to 2.1 nM; against GST-tagged SIK2, 3.7 nM; on GST-tagged SIK1 it was 4.9 nM.
The like results for `COc1cc(-c2c3c(OCC(F)F)cc(-c4cnn(C)c4)cc3nn2C)cc(OC(F)F)c1C(=O)N1CC(O)(C(F)(F)F)C1` [Example 41, [4-[4-(2,2-difluoroethoxy)-2-methyl-6-(1-methylpyrazol-4-yl)indazol-3-yl]-2-(difluoromethoxy)-6-methoxyphenyl]-[3-hydroxy-3-(trifluoromethyl)azetidin-1-yl]methanone] were, in that order, 5.3 nM, 7.6 nM and 1.3 nM.
Take `CCOc1cc(-c2cnn(C)c2)cc2nn(C)c(-c3cc(OC)c(C(=O)N4CC(O)(C(F)(F)F)C4)c(OC(F)F)c3)c12` [Example 42, [2-(difluoromethoxy)-4-[4-ethoxy-2-methyl-6-(1-methylpyrazol-4-yl)indazol-3-yl]-6-methoxyphenyl]-[3-hydroxy-3-(trifluoromethyl)azetidin-1-yl]methanone]: the figures for the IC50 against GST-tagged SIK3, on GST-tagged SIK2 and at GST-tagged SIK1 were 10.5 nM, 12.8 nM and 2 nM, respectively.
In the case of `COc1cc(-c2c3c(OC(C)C)cc(-c4cnn(C)c4)cc3nn2C)cc(OC(F)F)c1C(=O)N1CC(O)(C(F)(F)F)C1` [Example 43, [2-(difluoromethoxy)-6-methoxy-4-[2-methyl-6-(1-methylpyrazol-4-yl)-4-propan-2-yloxyindazol-3-yl]phenyl]-[3-hydroxy-3-(trifluoromethyl)azetidin-1-yl]methanone], the figures for the IC50 on GST-tagged SIK3, on GST-tagged SIK2 and at GST-tagged SIK1 were 20 nM, 19.7 nM and 2.4 nM, respectively.
Turning to `COc1cc(-c2c3c(OCCCCO)cc(-c4cnn(C)c4)cc3nn2C)cc(OC(F)F)c1C(=O)N1CC(O)(C(F)(F)F)C1` [Example 44, [2-(difluoromethoxy)-4-[4-(4-hydroxybutoxy)-2-methyl-6-(1-methylpyrazol-4-yl)indazol-3-yl]-6-methoxyphenyl]-[3-hydroxy-3-(trifluoromethyl)azetidin-1-yl]methanone], the 50% inhibitory concentration (IC50) worked out at 15.5 nM against GST-tagged SIK3, 8.4 nM against GST-tagged SIK2 and 6.7 nM at GST-tagged SIK1.
